{"source": "ChEMBL document CHEMBL5247665", "about": "“Improved synthesis and anticancer activity of a potent neuronal nitric oxide synthase inhibitor” (Bioorg Med Chem Lett, 2023)", "assay": "Toxicity in mouse at 10 mg/kg measured after 21 days", "format": "organism-based", "conditions": "in vivo, 504 h, time 21 day", "data": [{"smiles": "CNCc1cccc(CCc2ccc3c(C)cc(N)nc3c2)c1.Cl.Cl", "values": [{"measurement": "Activity", "result": "Non-Toxic"}]}]}
